Assay results as given in ChEMBL document CHEMBL1201862, “PubChem BioAssay data set” (2004).
Structures can show the parent of a compound that is named as a salt.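 Method: 48-hour compound exposure of cells in 96-well plates, five concentrations, linear interpolation of endpoints. Here, GI50 denotes the concentration required for 50% inhibition of growth.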 The source made the active and inactive calls. No stated cut-off is given here; in the data, active = GI50 up to about 1.1 µM and inactive = higher.

Tests used:
Test in all cases: DTP human tumour cell line panel, 48 h
DMS-114 = system: DMS-114
HOP-18 = system: HOP-18
KM-20L2 = system: KM-20L2
LXFL 529 = system: LXFL 529
RXF 631 = system: RXF 631
SNB-78 = system: SNB-78
XF498 = system: XF498
M19-MEL = system: M19-MEL
Hs-578T = system: Hs-578T

Row | Compound | GI50 (DMS-114) | GI50 (HOP-18) | GI50 (KM-20L2) | GI50 (LXFL 529) | GI50 (RXF 631) | GI50 (SNB-78) | GI50 (XF498) | GI50 (M19-MEL) | GI50 (Hs-578T)
1 | COc1nc(N)c(NC(C)=O)c(=O)n1C | > 100 µM (inactive) | > 100 µM (inactive) | > 100 µM (inactive) | > 100 µM (inactive) | > 100 µM (inactive) | > 100 µM (inactive) | > 100 µM (inactive) | – | –
2 | O=C(NN1C(=O)CSC1c1ccc(Cl)c(Cl)c1)c1ccncc1 (stereo unspecified) | 30.6 µM (inactive) | < 0.01 µM (active) | 74.6 µM (inactive) | 71.6 µM (inactive) | 94.4 µM (inactive) | 64.6 µM (inactive) | 48 µM (inactive) | – | –
3 | O=P(c1ccccc1)(c1ccccc1)C1CC=C(c2ccccc2)C2(CCCC2)C1 (stereo unspecified) | 34.4 µM (inactive) | 25.6 µM (inactive) | 33.7 µM (inactive) | > 100 µM (inactive) | 40.1 µM (inactive) | > 100 µM (inactive) | 65.5 µM (inactive) | 43.7 µM (inactive) | –
4 | Cc1ccc(/C=C/C(=O)c2ccc([N+](=O)[O-])cc2)cc1 | – | > 100 µM (inactive) | > 100 µM (inactive) | 74.3 µM (inactive) | > 100 µM (inactive) | > 100 µM (inactive) | > 100 µM (inactive) | > 100 µM (inactive) | –
5 | Cc1ccc(NC(=O)/C(CC(=O)c2c[n+]([O-])c3ccccc3[n+]2[O-])=N\NC(=O)C[n+]2ccccc2)cc1 | > 100 µM (inactive) | > 100 µM (inactive) | > 100 µM (inactive) | > 100 µM (inactive) | > 100 µM (inactive) | > 100 µM (inactive) | > 100 µM (inactive) | > 100 µM (inactive) | –
6 | C/C=C1/C(=Cc2[nH]c(C=c3[nH]/c(=C/C4=NC(=O)C(CC)=C4C)c(C)c3CCC(=O)O)c(CCC(=O)O)c2C)NC(=O)C1C (stereo unspecified) | 19.1 µM (inactive) | 30.2 µM (inactive) | 2.03 µM (inactive) | 2.06 µM (inactive) | 6.65 µM (inactive) | 11.5 µM (inactive) | 8.63 µM (inactive) | 10.9 µM (inactive) | –
7 | O=C1c2cccc3c2C(=O)c2c(cccc21)OCCOCCOCCOCCO3 | 86.1 µM (inactive) | > 100 µM (inactive) | > 100 µM (inactive) | > 100 µM (inactive) | 91.6 µM (inactive) | > 100 µM (inactive) | – | > 100 µM (inactive) | –
8 | CC(=O)N[C@@H]1C(O)CN2C(=O)C(=O)O[C@H](C(O)CO)[C@@H]12 (stereo partly specified) | > 100 µM (inactive) | 74 µM (inactive) | > 100 µM (inactive) | > 100 µM (inactive) | > 100 µM (inactive) | > 100 µM (inactive) | > 100 µM (inactive) | > 100 µM (inactive) | –
9 | CCOC(=O)Nc1ccc(S(=O)(=O)OC)cc1.CCOC(=O)Nc1ccc(S(=O)(=O)OC)cc1.NC(=O)NCCO | 22.1 µM (inactive) | 49.4 µM (inactive) | > 50 µM (inactive) | 29.4 µM (inactive) | 46.5 µM (inactive) | > 50 µM (inactive) | – | 29.9 µM (inactive) | –
10 | O=C1c2c(O)cccc2-c2nn(CCNCCO)c3ccc(NCCNCCO)c1c23 [LOSOXANTRONE HYDROCHLORIDE] | < 0.0104 µM (active) | 0.248 µM (active) | 1.66 µM (inactive) | 0.107 µM (active) | 0.318 µM (active) | 0.634 µM (active) | 0.0135 µM (active) | 0.16 µM (active) | 0.0791 µM (active)
